Measurements published in patent publication US20090304692A1, “TRIAZINE COMPOUNDS AS PI3 KINASE AND MTOR INHIBITORS” (Wyeth, priority 2008, published 2009).
pIC50: −log10 of the molar value.

Key:
Human mTOR (FLAG-TOR) = Human mTOR (FLAG-TOR) (Homo sapiens, UniProt P42345); experiment: mTOR kinase assay (DELFIA format, purified enzyme); assay type: biochemical; details: read-out: IC50 mTOR
PI3K-α = PI3K-α (Homo sapiens, UniProt P42336); experiment: PI3K-alpha fluorescence polarization assay; details: read-out: IC50 PI3Kα
PI3K-γ = PI3K-γ (Homo sapiens, UniProt P48736); experiment: PI3K-gamma fluorescence polarization assay; details: read-out: IC50 PI3Kγ
[1] = tested on: human prostate LNCap tumor cell line; experiment: In vitro cell culture growth assay (MTS), LNCap; details: Homo sapiens, LNCaP, 72 h, read-out: IC50 LNCap

Chain of PI3K-α (P42336 whole entry, species assumed): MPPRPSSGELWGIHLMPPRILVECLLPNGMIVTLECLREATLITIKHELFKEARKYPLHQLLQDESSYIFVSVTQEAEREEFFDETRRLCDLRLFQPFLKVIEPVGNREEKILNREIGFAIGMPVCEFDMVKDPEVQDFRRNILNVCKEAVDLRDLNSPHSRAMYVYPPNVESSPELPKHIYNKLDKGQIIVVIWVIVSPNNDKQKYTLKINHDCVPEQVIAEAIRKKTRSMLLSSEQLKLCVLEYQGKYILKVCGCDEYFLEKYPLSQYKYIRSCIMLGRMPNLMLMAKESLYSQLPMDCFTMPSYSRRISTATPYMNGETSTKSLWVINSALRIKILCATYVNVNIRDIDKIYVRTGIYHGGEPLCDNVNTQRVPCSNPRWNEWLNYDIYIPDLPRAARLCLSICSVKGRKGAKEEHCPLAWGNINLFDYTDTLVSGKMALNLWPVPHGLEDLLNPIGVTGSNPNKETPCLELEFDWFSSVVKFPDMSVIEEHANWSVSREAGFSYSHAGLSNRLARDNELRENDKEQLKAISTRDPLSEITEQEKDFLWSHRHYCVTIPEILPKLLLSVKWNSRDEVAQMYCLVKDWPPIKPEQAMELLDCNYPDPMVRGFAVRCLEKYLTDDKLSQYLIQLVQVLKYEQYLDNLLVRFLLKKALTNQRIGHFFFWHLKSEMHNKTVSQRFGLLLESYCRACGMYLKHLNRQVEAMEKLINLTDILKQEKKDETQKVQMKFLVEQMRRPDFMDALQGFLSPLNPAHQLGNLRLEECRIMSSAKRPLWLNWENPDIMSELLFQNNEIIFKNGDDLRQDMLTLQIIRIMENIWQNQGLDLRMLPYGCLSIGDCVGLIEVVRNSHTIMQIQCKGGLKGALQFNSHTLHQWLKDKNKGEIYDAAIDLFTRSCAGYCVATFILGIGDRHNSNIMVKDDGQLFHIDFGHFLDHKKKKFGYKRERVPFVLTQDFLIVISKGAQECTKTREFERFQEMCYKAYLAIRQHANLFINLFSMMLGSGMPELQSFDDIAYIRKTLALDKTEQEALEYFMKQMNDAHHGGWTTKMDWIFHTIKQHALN
Chain of PI3K-α (P27986 whole entry partner, species assumed): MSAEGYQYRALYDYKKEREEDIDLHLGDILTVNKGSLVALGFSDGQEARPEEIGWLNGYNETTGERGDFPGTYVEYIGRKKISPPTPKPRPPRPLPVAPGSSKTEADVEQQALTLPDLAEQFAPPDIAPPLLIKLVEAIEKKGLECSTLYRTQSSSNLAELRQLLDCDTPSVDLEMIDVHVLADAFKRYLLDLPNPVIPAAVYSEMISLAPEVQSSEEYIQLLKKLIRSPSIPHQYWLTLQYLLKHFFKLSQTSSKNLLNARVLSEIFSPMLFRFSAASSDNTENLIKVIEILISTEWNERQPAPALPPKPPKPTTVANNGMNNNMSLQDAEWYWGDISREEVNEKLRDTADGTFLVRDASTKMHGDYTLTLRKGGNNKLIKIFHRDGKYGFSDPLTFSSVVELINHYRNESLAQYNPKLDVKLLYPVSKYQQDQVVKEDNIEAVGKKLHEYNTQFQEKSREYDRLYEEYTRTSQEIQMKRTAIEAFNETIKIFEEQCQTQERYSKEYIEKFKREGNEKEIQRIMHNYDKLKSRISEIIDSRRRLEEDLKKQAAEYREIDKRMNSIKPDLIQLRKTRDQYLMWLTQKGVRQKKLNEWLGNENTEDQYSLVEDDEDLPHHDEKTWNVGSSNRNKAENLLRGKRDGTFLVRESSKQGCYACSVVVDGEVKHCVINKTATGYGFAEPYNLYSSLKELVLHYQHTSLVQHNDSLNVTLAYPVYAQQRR
Chain of PI3K-γ (P48736 whole entry, species assumed): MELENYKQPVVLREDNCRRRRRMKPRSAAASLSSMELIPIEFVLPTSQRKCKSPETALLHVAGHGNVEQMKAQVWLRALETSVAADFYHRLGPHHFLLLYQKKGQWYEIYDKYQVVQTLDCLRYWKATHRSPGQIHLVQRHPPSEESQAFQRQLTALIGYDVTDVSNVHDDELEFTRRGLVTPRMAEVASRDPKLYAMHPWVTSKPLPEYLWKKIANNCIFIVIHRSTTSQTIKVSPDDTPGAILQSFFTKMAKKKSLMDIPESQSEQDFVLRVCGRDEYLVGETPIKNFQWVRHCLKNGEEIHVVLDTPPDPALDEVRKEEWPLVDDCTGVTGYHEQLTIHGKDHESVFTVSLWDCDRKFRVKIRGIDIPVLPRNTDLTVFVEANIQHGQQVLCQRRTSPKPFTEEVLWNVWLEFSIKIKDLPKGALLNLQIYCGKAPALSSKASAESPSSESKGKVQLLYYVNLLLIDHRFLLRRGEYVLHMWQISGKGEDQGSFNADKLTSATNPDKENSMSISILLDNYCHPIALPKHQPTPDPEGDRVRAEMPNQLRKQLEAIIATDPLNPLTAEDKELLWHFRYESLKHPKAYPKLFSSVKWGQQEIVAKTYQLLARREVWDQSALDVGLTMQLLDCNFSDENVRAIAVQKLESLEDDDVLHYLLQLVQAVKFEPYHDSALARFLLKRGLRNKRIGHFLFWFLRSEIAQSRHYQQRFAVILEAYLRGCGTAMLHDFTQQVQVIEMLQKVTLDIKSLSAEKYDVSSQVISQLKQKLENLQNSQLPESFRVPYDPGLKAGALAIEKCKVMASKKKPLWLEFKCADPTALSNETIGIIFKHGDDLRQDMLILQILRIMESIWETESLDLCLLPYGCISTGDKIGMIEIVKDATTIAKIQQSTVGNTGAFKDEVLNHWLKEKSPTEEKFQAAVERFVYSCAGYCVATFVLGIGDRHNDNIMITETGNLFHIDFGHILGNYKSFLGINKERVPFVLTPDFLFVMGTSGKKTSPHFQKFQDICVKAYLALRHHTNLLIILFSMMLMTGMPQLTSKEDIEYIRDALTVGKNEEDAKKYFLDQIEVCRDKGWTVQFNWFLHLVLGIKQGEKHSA
Chain of Human mTOR (FLAG-TOR) (P42345 1360-2549 limits assumed): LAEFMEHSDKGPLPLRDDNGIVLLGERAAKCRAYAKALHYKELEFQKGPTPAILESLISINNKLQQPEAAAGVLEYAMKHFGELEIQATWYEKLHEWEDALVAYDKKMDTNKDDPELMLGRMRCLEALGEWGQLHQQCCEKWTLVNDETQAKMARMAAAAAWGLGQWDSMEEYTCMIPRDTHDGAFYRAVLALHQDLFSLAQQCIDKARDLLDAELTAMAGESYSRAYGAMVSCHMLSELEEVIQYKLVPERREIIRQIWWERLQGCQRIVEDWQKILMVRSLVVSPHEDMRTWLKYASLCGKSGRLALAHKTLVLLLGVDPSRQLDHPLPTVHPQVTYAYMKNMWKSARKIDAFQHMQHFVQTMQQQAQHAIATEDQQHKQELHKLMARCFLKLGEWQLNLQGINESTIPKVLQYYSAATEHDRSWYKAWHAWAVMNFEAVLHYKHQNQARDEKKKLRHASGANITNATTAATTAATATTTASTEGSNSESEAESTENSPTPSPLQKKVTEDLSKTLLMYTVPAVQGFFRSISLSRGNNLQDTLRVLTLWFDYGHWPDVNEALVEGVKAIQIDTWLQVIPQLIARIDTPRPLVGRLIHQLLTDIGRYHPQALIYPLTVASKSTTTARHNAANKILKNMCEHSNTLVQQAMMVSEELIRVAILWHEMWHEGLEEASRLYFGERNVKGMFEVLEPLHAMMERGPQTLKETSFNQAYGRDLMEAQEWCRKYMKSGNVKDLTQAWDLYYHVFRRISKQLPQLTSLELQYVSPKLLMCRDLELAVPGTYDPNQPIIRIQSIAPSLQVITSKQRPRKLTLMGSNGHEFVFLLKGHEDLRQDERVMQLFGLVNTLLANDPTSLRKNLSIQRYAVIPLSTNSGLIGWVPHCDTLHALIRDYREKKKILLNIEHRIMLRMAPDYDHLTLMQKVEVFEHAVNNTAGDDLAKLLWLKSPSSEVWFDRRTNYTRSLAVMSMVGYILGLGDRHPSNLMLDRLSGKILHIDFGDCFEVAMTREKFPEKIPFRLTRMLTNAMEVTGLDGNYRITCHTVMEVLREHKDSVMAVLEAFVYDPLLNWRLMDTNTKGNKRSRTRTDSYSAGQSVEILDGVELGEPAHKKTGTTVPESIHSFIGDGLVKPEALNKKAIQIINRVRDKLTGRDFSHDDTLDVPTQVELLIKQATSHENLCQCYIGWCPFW

SMILES | pIC50 (Human mTOR (FLAG-TOR)) | pIC50 (PI3K-α) | pIC50 (PI3K-γ) | pIC50 [1]
O=C(Nc1ccncc1)Nc1ccc(-c2nc(N3CCNCC3)nc(N3CC4CCC(C3)O4)n2)cc1 [Example 107, 1-(4-(4-(8-oxa-3-azabicyclo[3.2.1]octan-3-yl)-6-(piperazin-1-yl)-1,3,5-triazin-2-yl)phenyl)-3-(pyridin-4-yl)urea] | 7.72 | 6.94 | 5.83 | 6.00
CN1CCN(c2nc(-c3ccc(NC(=O)Nc4ccncc4)cc3)nc(N3CC4CCC(C3)O4)n2)CC1 [Example 108, 1-{4-[4-(4-methylpiperazin-1-yl)-6-(8-oxa-3-azabicyclo[3.2.1]oct-3-yl)-1,3,5-triazin-2-yl]phenyl}-3-pyridin-4-ylurea] | 7.72 | 6.23 | 5.38 | 6.49
O=C(Nc1ccncc1)Nc1ccc(-c2nc(N3CCN(Cc4ccccc4)CC3)nc(N3CC4CCC(C3)O4)n2)cc1 [Example 109, 1-{4-[4-(4-benzylpiperazin-1-yl)-6-(8-oxa-3-azabicyclo[3.2.1]oct-3-yl)-1,3,5-triazin-2-yl]phenyl}-3-pyridin-4-ylurea] | 7.13 | 5.84 | 5.53 | 5.72
O=C(Nc1ccncc1)Nc1ccc(-c2nc(N3CCN(Cc4cccnc4)CC3)nc(N3CC4CCC(C3)O4)n2)cc1 [Example 110, 1-(4-{4-(8-oxa-3-azabicyclo[3.2.1]oct-3-yl)-6-[4-(pyridin-3-ylmethyl)piperazin-1-yl]-1,3,5-triazin-2-yl}phenyl)-3-pyridin-4-ylurea] | 7.54 | 6.05 | 5.45 | 6.66
CN(C)CC(=O)N1CCN(c2nc(-c3ccc(NC(=O)Nc4ccncc4)cc3)nc(N3CC4CCC(C3)O4)n2)CC1 [Example 112, 1-(4-{4-[4-(N,N-dimethylglycyl)piperazin-1-yl]-6-(8-oxa-3-azabicyclo[3.2.1]oct-3-yl)-1,3,5-triazin-2-yl}phenyl)-3-pyridin-4-ylurea] | 7.92 | 6.31 | 6.11 | 6.52

The next molecules have a higher pIC50 (Human mTOR (FLAG-TOR)) than those just listed; values first:

pIC50 (Human mTOR (FLAG-TOR)) | pIC50 (PI3K-α) | pIC50 (PI3K-γ) | pIC50 [1] | SMILES
8.12 | 6.41 | 5.74 | 6.43 | CC(C)(C)OC(=O)N1CCN(c2nc(-c3ccc(NC(=O)Nc4ccncc4)cc3)nc(N3CC4CCC(C3)O4)n2)CC1 [Example 106, Tert-butyl 4-(4-(8-oxa-3-azabicyclo[3.2.1]octan-3-yl)-6-(4-(3-pyridin-4-ylureido)phenyl)-1,3,5-triazin-2-yl)piperazine-1-carboxylate]
8.64 | 6.94 | 5.74 | 7.24 | CC(=O)N1CCN(c2nc(-c3ccc(NC(=O)Nc4ccncc4)cc3)nc(N3CC4CCC(C3)O4)n2)CC1 [Example 111, 1-{4-[4-(4-acetylpiperazin-1-yl)-6-(8-oxa-3-azabicyclo[3.2.1]oct-3-yl)-1,3,5-triazin-2-yl]phenyl}-3-pyridin-4-ylurea]
8.50 | 6.97 | 5.93 | 7.42 | COC(=O)N1CCN(c2nc(-c3ccc(NC(=O)Nc4ccncc4)cc3)nc(N3CC4CCC(C3)O4)n2)CC1 [Example 114, Methyl 4-[4-(8-oxa-3-azabicyclo[3.2.1]oct-3-yl)-6-{4-[(pyridin-4-ylcarbamoyl)amino]phenyl}-1,3,5-triazin-2-yl]piperazine-1-carboxylate]
8.49 | 6.96 | 5.70 | 6.70 | O=C1CCN(c2nc(-c3ccc(NC(=O)Nc4ccncc4)cc3)nc(N3CC4CCC(C3)O4)n2)CC1 [Example 115, 1-(4-(4-(8-oxa-3-azabicyclo[3.2.1]octan-3-yl)-6-(4-oxopiperidin-1-yl)-1,3,5-triazin-2-yl)phenyl)-3-(pyridin-4-yl)urea]
8.57 | 5.76 | 5.64 | 7.15 | O=C(Nc1ccncc1)Nc1ccc(-c2nc(N3CCC(O)CC3)nc(N3CC4CCC(C3)O4)n2)cc1 [Example 116, 1-{4-[4-(4-hydroxypiperidin-1-yl)-6-(8-oxa-3-azabicyclo[3.2.1]oct-3-yl)-1,3,5-triazin-2-yl]phenyl}-3-pyridin-4-ylurea]
